Test results taken from ChEMBL document CHEMBL4342418, “1,2,3-Triazole-containing hybrids as potential anticancer agents: Current developments, action mechanisms and structure-activity relationships” (Eur J Med Chem, 2019).
pIC50: −log10 of the molar value. One block for each molecule: values may come before it.

Legend:
[1] = tested on: MDA-MB-231; assay: Antiproliferative activity against human MDA-MB-231 cells assessed as reduction in cell viability after 24 hrs by MTT assay; format: functional, cell-based; conditions: MDA-MB-231, 24 h
[2] = tested on: MCF7; assay: Antiproliferative activity against human MCF7 cells assessed as reduction in cell viability after 24 hrs by MTT assay; format: functional, cell-based; conditions: MCF7, 24 h
[3] = tested on: MCF7; assay: cells; format: functional, cell-based; conditions: Homo sapiens
Description: Antiproliferative activity against human MCF7 cells by MTT assay

[4] = tested on: MGC-803; assay: Antiproliferative activity against human MGC803 cells by MTT assay; format: functional, cell-based
[5] = tested on: ECa-109 cell line; assay: Antiproliferative activity against human EC109 cells by MTT assay; format: functional, cell-based
[6] = Antiproliferative activity against human HCG27 cells by MTT assay; format: functional, cell-based
[7] = tested on: DU-145; assay: Antiproliferative activity against human DU145 cells assessed as reduction in cell viability after 48 hrs by MTT assay; format: functional, cell-based; conditions: DU-145, 48 h
[8] = tested on: SK-OV-3; assay: Antiproliferative activity against human SKOV3 cells assessed as reduction in cell viability after 48 hrs by MTT assay; format: functional, cell-based; conditions: SK-OV-3, 48 h
[9] = tested on: HeLa; assay: Antiproliferative activity against human HeLa cells assessed as reduction in cell viability after 48 hrs by MTT assay; format: functional, cell-based
[10] = tested on: MCF7; assay: Antiproliferative activity against human MCF7 cells assessed as reduction in cell viability after 72 hrs by MTT assay; format: functional, cell-based; conditions: MCF7, 72 h
[11] = tested on: T47D; assay: Antiproliferative activity against human T47D cells assessed as reduction in cell viability after 72 hrs by MTT assay; format: functional, cell-based
[12] = tested on: HeLa; assay: Antiproliferative activity against human HeLa cells assessed as reduction in cell viability after 72 hrs by MTT assay; format: functional, cell-based
[13] = tested on: MDA-MB-231; assay: Antiproliferative activity against human MDA-MB-231 cells assessed as reduction in cell viability after 72 hrs by MTT assay; format: functional, cell-based; conditions: MDA-MB-231, 72 h, read-out: IC50
[14] = tested on: A-431; assay: Antiproliferative activity against human A431 cells assessed as reduction in cell viability after 72 hrs by MTT assay; format: functional, cell-based; conditions: A-431, 72 h
[15] = tested on: A2780; assay: Antiproliferative activity against human A2780 cells assessed as reduction in cell viability after 72 hrs by MTT assay; format: functional, cell-based; conditions: A2780, 72 h
[16] = Antiproliferative activity against human […] cells assessed as reduction in cell viability after 72 hrs by MTT assay; format: functional, cell-based
[17] = tested on: MCF7; assay: Potency index, ratio of Sorafenib IC50 to test compound IC50 for antiproliferative activity against human MCF7 cells; format: functional
[18] = tested on: HT-29; assay: Potency index, ratio of Sorafenib IC50 to test compound IC50 for antiproliferative activity against human HT-29 cells; format: functional
[19] = tested on: HT-29; assay: Antiproliferative activity against human HT-29 cells assessed as reduction in cell viability after 72 hrs by MTT assay; format: functional, cell-based; conditions: HT-29, 72 h
[20] = tested on: A549; assay: cells; format: functional, cell-based; conditions: Homo sapiens
Description: Antiproliferative activity against human A549 cells by MTT assay

[21] = tested on: HBL-100; assay: Antiproliferative activity against human HBL100 cells by MTT assay; format: functional, cell-based
[22] = tested on: HeLa; assay: Antiproliferative activity against human HeLa cells by MTT assay; format: functional, cell-based
[23] = tested on: SW1573; assay: Antiproliferative activity against human SW1573 cells by MTT assay; format: functional, cell-based
[24] = tested on: T47D; assay: Antiproliferative activity against human T47D cells by MTT assay; format: functional, cell-based
[25] = tested on: WiDr; assay: Antiproliferative activity against human WiDr cells by MTT assay; format: functional, cell-based
[26] = tested on: hTERT-BJ; assay: Cytotoxicity activity against human hTERT-BJ cells by MTT assay; format: cell-based

pIC50 [1]: 4.79
pIC50 [2]: 4.68
SMILES: Cc1ncc([N+](=O)[O-])n1Cc1cn(CCCCCN2C(=O)C(=O)c3cc(Cl)ccc32)nn1

pIC50 [3]: 5.15 to 6.24
pIC50 [4]: 5.15 to 6.24
SMILES: Cc1ccc(Cn2cc(CSc3nc(Nc4ccccc4)c4ccccc4n3)nn2)cc1
pIC50 [5]: 5.15 to 6.24
pIC50 [6]: 5.15 to 6.24

pIC50 [7]: 5.06
pIC50 [8]: < 4.00
pIC50 [9]: < 4.00
SMILES: O=C(NCc1cn(-c2ccc(F)cc2)nn1)C(=O)c1c[nH]c2ccccc12

pIC50 [10]: 5.08 to 5.62
pIC50 [11]: 5.08 to 5.62
pIC50 [12]: 5.08 to 5.62
pIC50 [13]: 5.08 to 5.62
pIC50 [14]: 5.08 to 5.62
pIC50 [15]: 5.08 to 5.62
SMILES: CCc1ccc(-c2cn([C@H]3C[C@H]4[C@@H]5CCc6cc(OCc7ccccc7)ccc6[C@H]5CC[C@@]4(C)[C@@H]3O)nn2)cc1
pIC50 [16]: 5.08 to 5.62

pIC50 [10]: 6.08 to 6.70
pIC50 [19]: 6.08 to 6.70
SMILES: CNC(=O)c1cc(Oc2ccc(-n3cc(-c4ccccc4F)nn3)cc2)ccn1
Ratio IC50 [17]: 6.2 - 131.2
Ratio IC50 [18]: 6.2 - 131.2

pIC50 [20]: 5.18 to 5.51
pIC50 [22]: 5.18 to 5.51
pIC50 [23]: 5.18 to 5.51
pIC50 [24]: 5.18 to 5.51
SMILES: C=CCC1CC(Cc2cn([C@@H](Cc3ccccc3)c3nc(C(=O)OC)co3)nn2)CC(O[Si](C)(C)C(C)(C)C)C1 (some centres not stated)
pIC50 [21]: 5.18 to 5.51
pIC50 [25]: 5.18 to 5.51
pIC50 [26]: 4.28
